Assay results taken from the supplement of paper PMC11208160.

experiment: recombinant UMI read abundance after kanamycin selection (control-corrected) (log10(CPM+1)); higher = more efficient recombination; extreme values may be limits of the assay; sequences stand for … in AGTGCAGAGAAAATCGGCCAGTTTTCTCTGCCTGCAGTCCGCATGCCGTGGGACCCCTTGGGTTCTAACCTGTTGCCTAGATTTATGCAGCGGACTGCCTTTCTCCCAAAGTGATAAACCGG…AGGTTGGTTTCACT; site = the 11-nt donor
In short: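 Values, expressed as log10(CPM+1), derive from recombinant UMI counts converted to CPM, averaged across replicates and scaled by control-derived factors. Plating was with IPTG (0.07 mM) plus kanamycin or unselected, two replicates each. The screen pooled donor and donor-binding-loop pairs for the IS621 bridge recombinase in Escherichia coli.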
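Note: IS621 bridge recombinase in Escherichia coli cells against a fixed T5 target plasmid.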

“CGATCGCCATGGACCGGTTTTCCCGGTAATCCGTATTTGTT (site CGATCGACTAA)” and “CGATCGCCATGGACCGGTTTTCCCGGTAATCCGTATTTGTT (site CGATCGCCTAA)” are within 0.2 log units of each other in “recombinant UMI read abundance (log10)” value: 0.0236 for the first, 0.142 for the second.

Going from “CGATCGCCATGGACCGGTTTTCCCGGTAATCCGTATTTGTT (site CGATCGGCTAA)” to “CGATCGCCATGGACCGGTTTTCCCGGTAATCCGTATTTGTT (site CGATCGTCTAA)”, the “recombinant UMI read abundance (log10)” value rises from 0 to 1.46.

Going from “CGATCGTCATGGACCGGTTTTCCCGGTAATCCGTATTTGCT (site CGATCATCTAG)” to “CGATCGTCATGGACCGGTTTTCCCGGTAATCCGTATTTGCT (site CGATCCTCTAG)”, the “recombinant UMI read abundance (log10)” value falls from 2.15 to 0.

Compared with “CGATCGTCATGGACCGGTTTTCCCGGTAATCCGTATTTGCT (site CGATCGTCTAG)”, “CGATCGTCATGGACCGGTTTTCCCGGTAATCCGTATTTGCT (site CGATCTTCTAG)” is lower in “recombinant UMI read abundance (log10)” value: 2.46 for the first, 0 for the second.

“CGATCTACATGGACCGGTTTTCCCGGTAATCCGTATTTGTT (site CGATCAACTAA)” and “CGATCTACATGGACCGGTTTTCCCGGTAATCCGTATTTGTT (site CGATCCACTAA)” are within 0.2 log units of each other in “recombinant UMI read abundance (log10)” value: 0.012 for the first, 0.0103 for the second.

Compared with “CGATCTACATGGACCGGTTTTCCCGGTAATCCGTATTTGTT (site CGATCGACTAA)”, “CGATCTACATGGACCGGTTTTCCCGGTAATCCGTATTTGTT (site CGATCTACTAA)” is higher in “recombinant UMI read abundance (log10)” value: 0.00912 for the first, 0.246 for the second.

First: CGATCTGCATGGACCGGTTTTCCCGGTAATCCGTATTTGCT (site CGATCATCTAG)
Second: CGATCTGCATGGACCGGTTTTCCCGGTAATCCGTATTTGCT (site CGATCTGCTAG)
The “recombinant UMI read abundance (log10)” value of the first is lower: 0 for the first, 1.72 for the second.

“CGATGACCATGGACCGGTTTTCCCGGTAATCCGTATTTGCT (site CGATCATCTAG)” and “CGATGACCATGGACCGGTTTTCCCGGTAATCCGTATTTGCT (site CGATGACCTAG)” are the same in “recombinant UMI read abundance (log10)” value: 0 for the first, 0 for the second.

First: CGATGATCATGGACCGGTTTTCCCGGTAATCCGTATTTGAA (site CGATGATCTTT)
Second: CGATTAGCATGGACCGGTTTTCCCGGTAATCCGTATTTGCT (site CGATCATCTAG)
The “recombinant UMI read abundance (log10)” value of the first is higher: 2.86 for the first, 0 for the second.

Compared with “CGATTAGCATGGACCGGTTTTCCCGGTAATCCGTATTTGCT (site CGATTAGCTAG)”, “CGATTATCATGGACCGGTTTTCCCGGTAATCCGTATTTGAC (site CGATTATCTGT)” is higher in “recombinant UMI read abundance (log10)” value: 0 for the first, 1.98 for the second.

Going from “CGATTATCATGGACCGGTTTTCCCGGTAATCCGTATTTGAC (site CTAGTATCTGT)” to “CGATTATCATGGACCGGTTTTCCCGGTAATCCGTATTTGCA (site CGATCATCTAG)”, the “recombinant UMI read abundance (log10)” value falls from 1.07 to 0.

Going from “CGATTATCATGGACCGGTTTTCCCGGTAATCCGTATTTGCA (site CGATTATCTTG)” to “CGATTATCATGGACCGGTTTTCCCGGTAATCCGTATTTGTT (site CGATCATCTAG)”, the “recombinant UMI read abundance (log10)” value falls from 2.39 to 0.

First: CGATTATCATGGACCGGTTTTCCCGGTAATCCGTATTTGTT (site CGATTATCTAA)
Second: CGATTTACATGGACCGGTTTTCCCGGTAATCCGTATTTGCT (site CGATTTACTAG)
The “recombinant UMI read abundance (log10)” value of the first is higher: 2.45 for the first, 1.76 for the second.

Going from “CGCAATCCATGGACCGGTTTTCCCGGTAATCCGTATTTGAG (site CGCAATCCTCT)” to “CGCACATCATGGACCGGTTTTCCCGGTAATCCGTATTTGCT (site CGAACATCTAG)”, the “recombinant UMI read abundance (log10)” value falls from 0.964 to 0.

Going from “CGCACATCATGGACCGGTTTTCCCGGTAATCCGTATTTGCT (site CGCACATCTAG)” to “CGCACATCATGGACCGGTTTTCCCGGTAATCCGTATTTGCT (site CGGACATCTAG)”, the “recombinant UMI read abundance (log10)” value falls from 1.02 to 0.

Going from “CGCACATCATGGACCGGTTTTCCCGGTAATCCGTATTTGCT (site CGTACATCTAG)” to “CGCACTCCATGGACCGGTTTTCCCGGTAATCCGTATTTGTT (site CGCACTCCTAA)”, the “recombinant UMI read abundance (log10)” value rises from 0 to 0.808.

First: CGCACTCCATGGACCGGTTTTCCCGGTAATCCGTATTTGTT (site CGGAATCCTAA)
Second: CGCATCACATGGACCGGTTTTCCCGGTAATCCGTATTTGCC (site CGCATCACTGG)
The “recombinant UMI read abundance (log10)” value of the first is lower: 0 for the first, 1.78 for the second.

Going from “CGCATCTCATGGACCGGTTTTCCCGGTAATCCGTATTTGTG (site CGCATCTCTCA)” to “CGCATGCCATGGACCGGTTTTCCCGGTAATCCGTATTTGCA (site CGCATGCCTTG)”, the “recombinant UMI read abundance (log10)” value falls from 1.83 to 0.808.

Going from “CGCCACACATGGACCGGTTTTCCCGGTAATCCGTATTTGTA (site CACCACACTTA)” to “CGCCACACATGGACCGGTTTTCCCGGTAATCCGTATTTGTA (site CCCCACACTTA)”, the “recombinant UMI read abundance (log10)” value falls from 0.727 to 0.261.

First: CGCCACACATGGACCGGTTTTCCCGGTAATCCGTATTTGTA (site CGCCACACTTA)
Second: CGCCACACATGGACCGGTTTTCCCGGTAATCCGTATTTGTA (site CTCCACACTTA)
The “recombinant UMI read abundance (log10)” value of the first is higher: 1.95 for the first, 0.241 for the second.

Compared with “CGCCATACATGGACCGGTTTTCCCGGTAATCCGTATTTGCT (site CGCCATACTAG)”, “CGCCATACATGGACCGGTTTTCCCGGTAATCCGTATTTGCT (site CGCCCTACTAG)” is lower in “recombinant UMI read abundance (log10)” value: 1.64 for the first, 0.00847 for the second.

“CGCCATACATGGACCGGTTTTCCCGGTAATCCGTATTTGCT (site CGCCGTACTAG)” and “CGCCATACATGGACCGGTTTTCCCGGTAATCCGTATTTGCT (site CGCCTTACTAG)” are within 0.2 log units of each other in “recombinant UMI read abundance (log10)” value: 0 for the first, 0.046 for the second.

Going from “CGCCGCTCATGGACCGGTTTTCCCGGTAATCCGTATTTGCC (site CGCCGCTCTGG)” to “CGCCTAACATGGACCGGTTTTCCCGGTAATCCGTATTTGGG (site CGCCTAACTCC)”, the “recombinant UMI read abundance (log10)” value falls from 2.47 to 0.0879.

“CGCGAACCATGGACCGGTTTTCCCGGTAATCCGTATTTGAT (site CGAGAACCTAT)” and “CGCGAACCATGGACCGGTTTTCCCGGTAATCCGTATTTGAT (site CGCGAACCTAT)” are the same in “recombinant UMI read abundance (log10)” value: 0 for the first, 0 for the second.

“CGCGAACCATGGACCGGTTTTCCCGGTAATCCGTATTTGAT (site CGGGAACCTAT)” and “CGCGAACCATGGACCGGTTTTCCCGGTAATCCGTATTTGAT (site CGTGAACCTAT)” are the same in “recombinant UMI read abundance (log10)” value: 0 for the first, 0 for the second.

Compared with “CGCGATTCATGGACCGGTTTTCCCGGTAATCCGTATTTGGC (site CGCGATTCTGC)”, “CGCGCGCCATGGACCGGTTTTCCCGGTAATCCGTATTTGAG (site CGCGCGCCTCT)” is lower in “recombinant UMI read abundance (log10)” value: 1.61 for the first, 0.0359 for the second.

Going from “CGCGGTACATGGACCGGTTTTCCCGGTAATCCGTATTTGCT (site CGCAGTACTAG)” to “CGCGGTACATGGACCGGTTTTCCCGGTAATCCGTATTTGCT (site CGCCGTACTAG)”, the “recombinant UMI read abundance (log10)” value falls from 1.64 to 0.

First: CGCGGTACATGGACCGGTTTTCCCGGTAATCCGTATTTGCT (site CGCGGTACTAG)
Second: CGCGGTACATGGACCGGTTTTCCCGGTAATCCGTATTTGCT (site CGCTGTACTAG)
The “recombinant UMI read abundance (log10)” value of the first is higher: 1.92 for the first, 0.467 for the second.

First: CGCGTCACATGGACCGGTTTTCCCGGTAATCCGTATTTGAC (site CGCGTCACTGT)
Second: CGCGTGTCATGGACCGGTTTTCCCGGTAATCCGTATTTGAC (site CGCGTGTCTGT)
The “recombinant UMI read abundance (log10)” value of the first is higher: 2.44 for the first, 0 for the second.

First: CGCTAATCATGGACCGGTTTTCCCGGTAATCCGTATTTGCT (site CGATCATCTAG)
Second: CGCTAATCATGGACCGGTTTTCCCGGTAATCCGTATTTGCT (site CGCTAATCTAG)
The “recombinant UMI read abundance (log10)” value of the first is lower: 0 for the first, 1.97 for the second.

“CGCTACACATGGACCGGTTTTCCCGGTAATCCGTATTTGCT (site CACTACACTAG)” and “CGCTACACATGGACCGGTTTTCCCGGTAATCCGTATTTGCT (site CCCTACACTAG)” are within 0.2 log units of each other in “recombinant UMI read abundance (log10)” value: 1.32 for the first, 1.29 for the second.

Going from “CGCTACACATGGACCGGTTTTCCCGGTAATCCGTATTTGCT (site CGCTACACTAG)” to “CGCTACACATGGACCGGTTTTCCCGGTAATCCGTATTTGCT (site CTCTACACTAG)”, the “recombinant UMI read abundance (log10)” value falls from 2.9 to 0.92.

“CGCTAGGCATGGACCGGTTTTCCCGGTAATCCGTATTTGGT (site AGCTAGGCTAC)” and “CGCTAGGCATGGACCGGTTTTCCCGGTAATCCGTATTTGGT (site CGCTAGGCTAC)” are within 0.2 log units of each other in “recombinant UMI read abundance (log10)” value: 0.0207 for the first, 0.0166 for the second.

“CGCTAGGCATGGACCGGTTTTCCCGGTAATCCGTATTTGGT (site GGCTAGGCTAC)” and “CGCTAGGCATGGACCGGTTTTCCCGGTAATCCGTATTTGGT (site TGCTAGGCTAC)” are within 0.2 log units of each other in “recombinant UMI read abundance (log10)” value: 0.00627 for the first, 0.0198 for the second.

First: CGCTCAACATGGACCGGTTTTCCCGGTAATCCGTATTTGCC (site CGCTCAACTGG)
Second: CGCTCATCATGGACCGGTTTTCCCGGTAATCCGTATTTGCG (site CGATCATCTAG)
The “recombinant UMI read abundance (log10)” value of the first is higher: 0.429 for the first, 0 for the second.

Going from “CGCTCATCATGGACCGGTTTTCCCGGTAATCCGTATTTGCG (site CGCTCATCTCG)” to “CGCTCATCATGGACCGGTTTTCCCGGTAATCCGTATTTGCT (site CGATCATCTAG)”, the “recombinant UMI read abundance (log10)” value falls from 0.716 to 0.

First: CGCTCATCATGGACCGGTTTTCCCGGTAATCCGTATTTGCT (site CGCTCATCTAG)
Second: CGCTCATCATGGACCGGTTTTCCCGGTAATCCGTATTTGCT (site CGGTCATCTAG)
The “recombinant UMI read abundance (log10)” value of the first is higher: 2.6 for the first, 0 for the second.

In the case of “CGCTCATCATGGACCGGTTTTCCCGGTAATCCGTATTTGCT (site CGTTCATCTAG)”, the “recombinant UMI read abundance (log10)” value is reported as 1.35.
